Data on ten compounds can be found in US11292812B2, “3′3′-cyclic dinucleotides” (Institute of Organic Chemistry and Biochemistry, ASCR, V.V.I, priority 2018, dated 2022).

For experiment [1], the target named is T1, WT STING (Homo sapiens, UniProt Q86WV6, H232R). In words: Digitonin assay using 293T wtSTING-FL reporter cells. It is filed as cell-based. The conditions noted are these: 293T wtSTING-FL cells, ISRE firefly luciferase reporter, digitonin buffer 30 minutes, then 5 hours. From the text: Two complementary oligonucleotides of the sequence […] […] […] […] […] […] […] The oligonucleotides were mixed in equal molar amounts, hybridized, and cleaved by restriction endonucleases HindIII (cat. #. R0104S, NEB, Ipswich, USA) and BglII (cat. #R0144S, NEB, Ipswich, USA). Ultimately, they were ligated into plasmid pGL4.27 (cat. #E6651, Promega, Madison, USA) linearized with the same enzymes. As result the sequence with four ISRE sites was placed upstream of the minimum promoter of firefly luciferase reporter gene.
After 5 minutes incubation at room temperature (RT), 250 μL of the mixture was added dropwise to the cells in one well. Cells were incubated 36 hours at 37° C. with 5% CO2, and then detached with 0.05% Trypsin and 0.22 g/L EDTA (both cat. #L0941, Biowest, Riverside, USA).
Transfected cells were seeded onto poly-D-lysine coated six well plates at density 50,000 cells per 1 cm^2 in DMEM medium with high glucose containing 10% heat inactivated FBS, 30 μg/mL blasticidin (cat. #ant-bl-05, InvivoGen, San Diego, USA), 0.06 mg/ml Penicillin G and 0.1 mg/ml Streptomycin Sulfate (both cat. #. L0018, Biowest, Riverside, USA). The medium was replenished every 3-4 days until visible colonies of cells resistant to blasticidin were formed.
Blasticidin resistant cells stably expressing WT STING were further transfected with pGL64.27-4×ISRE plasmid following the same procedure as described above. […] Homogeneous culture of stably double transfected cells was prepared by limiting dilution of cells in 96 well plates and wells with cells were selected that originated from a single cell.
The medium was removed next day and three fold serial dilutions of compounds in Digitonin buffer containing 50 mmol·l^−1 HEPES (cat. #H3375, Sigma Aldrich, Czech Republic) pH 7.0, 100 mmol·l^−1 KCl, 3 mmol·l^−1 MgCl2, 0.1 mmol·l^−1 DTT (cat. #D0632, Sigma Aldrich, Czech Republic), 85 mmol·l^−1 Sucrose (cat. #S7903, Sigma Aldrich, Česká Republika), 0.2% BSA (cat. #A2153, Sigma Aldrich, Czech Republic), 1 mmol·l^−1 ATP (cat. #A1852, Sigma Aldrich, Czech Republic), 0.1 mmol·l^−1 GTP (cat. #G8877, Sigma Aldrich, Czech Republic), and 10 μg/mL Digitonin A (cat. #D141, Sigma Aldrich, Czech Republic) were added to the cells. The buffer was removed after 30 minutes incubation at 37° C. with 5% CO2, the cells were washed once with 100 μl of cultivation medium, and 100 μl of medium was added to each well. The plates with cells were incubated for 5 hours at 37° C. with 5% CO2, 50 μl of the medium was removed and 30 μl of ONE-Glo™ Luciferase Assay System reagent (cat. #E6120, Promega, Madison, USA) was added to each well. Luminesce was read on Synergy H1 (Biotek, Winooski, USA).
Target sequence in this assay (Q86WV6 whole entry H232R): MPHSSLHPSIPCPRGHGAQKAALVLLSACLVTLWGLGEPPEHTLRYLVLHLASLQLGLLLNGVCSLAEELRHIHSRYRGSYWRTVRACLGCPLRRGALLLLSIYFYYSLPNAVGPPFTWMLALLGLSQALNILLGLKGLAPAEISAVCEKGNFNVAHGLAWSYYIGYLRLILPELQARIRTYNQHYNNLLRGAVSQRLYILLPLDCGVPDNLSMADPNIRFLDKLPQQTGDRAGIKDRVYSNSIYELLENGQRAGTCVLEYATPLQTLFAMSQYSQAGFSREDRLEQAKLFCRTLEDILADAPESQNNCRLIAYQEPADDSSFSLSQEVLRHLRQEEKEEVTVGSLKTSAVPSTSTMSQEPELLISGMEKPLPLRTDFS
(In a reporter assay the amount or activity of a reporter protein is the signal.)

Experiment [2] deals with T1, WT STING. In words: Differential Scanning Fluorimetry with WT STING. The format is binding. Set-up: truncated human WT STING or AQ STING (amino acid residues 140-343); 8xHis (N, cleaved yes); SUMO (N, cleaved yes); made in house; host or cells: E. coli Rosetta-gami B (DE3). The conditions noted are these: thermal shift, truncated human WT STING 0.1 mg/ml, 150 μM CDN; for ΔTm at 150 µM: read-out: DSF ΔTm WT STING. The method, then:
(§1) Purified PCR products were cleaved with restriction enzymes BamHI (cat. #R0136S, NEB, Ipswich, USA) and NotI (cat. #R0189S, NEB, Ipswich, USA) and cloned into the pSUMO vector linearized with the identical enzymes.
(§2) DNase I (cat. #D5025, Sigma Aldrich, Czech Republic) and RNase A (cat. #R6513, Sigma Aldrich, Czech Republic) were added (final concentration 50 μg/ml) together with MgCl2 (final concentration 5 mmol·l^−1) to the homogenate and bacteria were lysed using French Press G-M™ High-Pressure Cell Press Homogenizer (1500 psi, 3 cycles). […] The resin was poured into a chromatography column, washed with 50 ml buffer A (50 mmol·l^−1 TrisCl (pH 8.0), 800 mmol·l^−1 NaCl, 3 mmol·l^−1 β-mercaptoethanol; 10% glycerol; 20 mmol·l^−1 imidazole) and 8-His-SUMO tagged STING proteins were eluted with 15 ml buffer A containing 300 mmol·l^−1 imidazole. […] Proteins were concentrated with Amicon® Ultra-15 10 K device (cat. #UFC901008, Merck Millipore, Billerica, USA) and flash frozen in liquid N2.
(§3) 20 μL solutions of the reaction mixtures were pipetted in triplicates into 96 well optical reaction plates and thermal denaturation of samples were performed on real time PCR cycler (LightCycler® 480 Instrument II—Roche, Basel, Switzerland). The first derivative of the thermal denaturation curves was performed to calculate denaturing temperatures of STING-CDN complexes and STING apoproteins. The thermal shift for each CDN was calculated by subtracting the average denaturing temperature of STING apoprotein from the average denaturing temperature of STING CDN complex.
Target sequence in this assay (Q86WV6 140-343 H232R): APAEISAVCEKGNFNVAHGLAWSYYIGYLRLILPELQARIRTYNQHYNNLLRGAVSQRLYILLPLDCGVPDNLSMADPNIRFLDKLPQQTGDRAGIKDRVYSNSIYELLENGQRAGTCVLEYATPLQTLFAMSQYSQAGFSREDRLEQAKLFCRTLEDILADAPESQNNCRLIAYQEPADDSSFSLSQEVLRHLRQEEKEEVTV
(Differential scanning fluorimetry follows unfolding on heating by fluorescence.)

The target of a further experiment is T2, AQ STING (G230A-R293Q) (Homo sapiens, UniProt Q86WV6, G230A/H232R/R293Q).
T2 construct: truncated human WT STING or AQ STING (amino acid residues 140-343); 8xHis (N, cleaved yes); SUMO (N, cleaved yes); made in house; host or cells: E. coli Rosetta-gami B (DE3)
T2 sequence (Q86WV6 140-343 G230A/H232R/R293Q): as the sequence (Q86WV6 140-343 H232R) above, with G91A, R154Q counted along it
In words: Differential Scanning Fluorimetry with AQ STING. It is filed as binding. To be noted: thermal shift, truncated human AQ STING 0.1 mg/ml, 150 μM CDN; for ΔTm at 150 µM: read-out: DSF ΔTm AQ STING. Here is the method: as §1, §2, §3

“2-amino-9-((2R,3aS,7aR,9R,10R,10aR,15aR)-9-(6-amino-9H-purin-9-yl)-10-fluoro-5,13-dihydroxy-5,13-dioxidodecahydro-2H-difuro[3,2-d:3′,2′-k][1,3,7,10]tetraoxa[2,8]diphosphacyclotridecin-2-yl)-1,9-dihydro-6H-purin-6-one [Example 15]”: the EC50 on WT STING [1] came out at 110 nM. Moreover, the “DSF ΔTm WT STING” value on WT STING [2] was 4.0 °C. In addition, on AQ STING (G230A-R293Q), the “DSF ΔTm AQ STING” value was 12.7 °C.
As for `Nc1ncnc2c1ncn2[C@@H]1O[C@@H]2COP(=O)(O)COC3C(O)[C@H](n4cnc5c(N)ncnc54)O[C@@H]3COP(=O)(O)COC2C1O` (stereo partly drawn) [Example 10, (2R,3R,3aR,8aR,10R,11R,11aR,16aR)-2,10-bis(6-amino-9H-purin-9-yl)-3,6,11,14-tetrahydroxvdodecahydrodifuro[3,2-e:3′,2′-l][1,4,8,11]tetraoxa[2,9]diphosphacyclotetradecine 6,14-dioxide], at WT STING [1], the EC50 was greater than 100000 nM. The “DSF ΔTm WT STING” value at WT STING [2] was 0.0 °C. Further, on AQ STING (G230A-R293Q), the “DSF ΔTm AQ STING” value is −0.2 °C.
In the case of `Nc1nc2c(ncn2[C@@H]2O[C@@H]3COP(=O)(O)COC4C(F)[C@H](n5cnc6c(N)ncnc65)O[C@@H]4COP(=O)(O)OC3C2F)c(=O)[nH]1` (stereo partly drawn) [Example 8, 2-amino-9-((2R,3R,3aR,7aR,9R,10R,10aR,15aR)-9-(6-amino-9H-purin-9-yl)-3,10-difluoro-5,13-dihydrox-5,13-diox-idodecahdro-2H-difuro[3,2-d:3′,2′-k][1,3,7,10]tetraoxa[2,8]diphosphacyclotridecin-2-yl)-1,9-dihydro-6H-purin-6-one], the concentration giving a half-maximal response (EC50) at WT STING [1] came out at 8 nM. Also, the ΔTm at 150 µM turned out to be 10.7 °C on WT STING [2] and 18.6 °C on AQ STING (G230A-R293Q).
For `Nc1nc2c(ncn2[C@@H]2O[C@@H]3COP(=O)(O)COC4C(F)[C@H](n5cnc6c(N)ncnc65)O[C@@H]4COP(=O)(O)OC3C2O)c(=O)[nH]1` (stereo partly drawn) [Example 7, 2-amino-9-((2R,3R,3aS,7aR,9R,10R,10aR,15aR)-9-(6-amino-9H-purin-9-yl)-10-fluoro-3,5,13-trihydroxy-5,13-dioxidodecahydro-2H-difuro[3,2-d:3′,2′-k][1,3,7,10]tetraoxa[2,8]diphosphacyclotridecin-2-yl)-1,9-dihydro-6H-purin-6-one], in that order: 30 nM, 5.6 °C and 15 °C.
With `Nc1nc2c(ncn2[C@@H]2O[C@@H]3COP(=O)(O)OC4C(O)[C@H](n5cnc6c(N)ncnc65)O[C@@H]4COP(=O)(O)COC3C2F)c(=O)[nH]1` (stereo partly drawn) [Example 11, 2-amino-9-((2R,3R,3aS,7aR,9R,10R,10aR,15aR)-2-(6-amino-9H-purin-9-yl)-10-fluoro-3,5,13-trihydroxy-5,13-dioxidodecahydro-2H-difuro[3,2-d:3′,2′-k][1,3,7,10][tetraoxa][2,8]diphosphacyclotridecin-9-yl)-1,9-dihydro-6H-purin-6-one], the EC50 on WT STING [1] stood at 50 nM. Further, the shift in melting temperature (ΔTm) at 150 µM turned out to be 7.3 °C on WT STING [2] and 11.3 °C on AQ STING (G230A-R293Q).
As to `Nc1ncnc2c1ncn2[C@@H]1O[C@@H]2COP(=O)(O)OC3C(F)[C@H](n4cnc5c(N)ncnc54)O[C@@H]3COP(=O)(O)COC2C1F` (stereo partly drawn) [Example 13, (2R,3R,3aR,7aR,9R,10R,10aR,15aR)-2,9-bis(6-amino-9H-purin-9-yl)-3,10-difluoro-5,13-dihydroxydecahydro-2H-difuro[3,2-d:3′,2′-k][1,3,7,10]tetraoxa[2,8]diphosphacyclotridecine 5,13-dioxide], the EC50 at WT STING [1] is 12 nM. Further, the ΔTm at 150 µM on WT STING [2] came out at 9.4 °C; at AQ STING (G230A-R293Q), 16.1 °C.
As to `Nc1nc2c(ncn2[C@@H]2O[C@@H]3COP(=O)(O)OC4C(F)[C@H](n5cnc6c(=O)[nH]c(N)nc65)O[C@@H]4COP(=O)(O)COC3C2F)c(=O)[nH]1` (stereo partly drawn) [Example 16, 9,9′-((2R,3R,3aR,7aR,9R,10R,10aR,15aR)-3,10-difluoro-5,13-dihydroxy-5,13-dioxidodecahydro-2H-difuro[3,2-d:3′,2′-k][1,3,7,10]tetraoxa[2,8]diphosphacyclotridecine-2,9-diyl)bis(2-amino-1,9-dihydro-6H-purin-6-one)], at WT STING [1], the EC50 was 300 nM. Also, the ΔTm at 150 µM came out at 3.1 °C on WT STING [2] and 10.7 °C on AQ STING (G230A-R293Q).
The matching figures for `Nc1nc2c(ncn2[C@H]2CC3OCP(=O)(O)OC[C@H]4O[C@@H](n5cnc6c(N)ncnc65)C(F)C4OP(=O)(O)OC[C@H]3O2)c(=O)[nH]1` (stereo partly drawn) [Example 14, 2-amino-9-((2R,3R,3aR,7aR,9R,10aS,15aR)-2-(6-amino-9H-purin-9-yl)-3-fluoro-5,13-dihydroxy-5,13-dioxidodecahydro-2H-difuro[3,2-d:3′,2′-k][1,3,7,10]tetraoxa[2,8]diphosphacyclotridecin-9-yl)-1,9-dihydro-6H-purin-6-one]: 90 nM, 3.8 °C and 11.2 °C.
The matching figures for `Nc1nc2c(ncn2[C@@H]2O[C@@H]3COP(=O)(O)OC4C(F)[C@H](n5cnc6c(N)ncnc65)O[C@@H]4COP(=O)(O)COC3C2F)c(=O)[nH]1` (stereo partly drawn) [Example 12]: 20 nM, 9.3 °C and 17.3 °C.
The matching figures for `Nc1nc2c(ncn2[C@@H]2O[C@@H]3COP(=O)(O)COC4C(O)[C@H](n5cnc6c(N)ncnc65)O[C@@H]4COP(=O)(O)OC3C2O)c(=O)[nH]1` (stereo partly drawn) [Example 3, 2-amino-9-((2R,3R,3aS,7aR,9R,10R,10aS,15aR)-9-(6-amino-9H-purin-9-yl)-3,5,10,13-tetrahydroxy-5,13-dioxidodecahydro-2H-difuro[3,2-d:3′,2′-k][1,3,7,10]tetraoxa[2,8]diphosphacyclotridecin-2-yl)-1,9-dihydro-6H-purin-6-one]: 12500 nM, 0 °C and 3.1 °C.

One may read the EC50 as the concentration needed to bring the measured effect to its halfway point. A word on the ΔTm: it is the shift of the melting midpoint relative to a reference.
